Measured values reported in US20250296953A1, “3,4-THIAZOLO-STEROIDS AND METHODS OF MAKING AND USING THE SAME” (Arkansas State University - Jonesboro, priority 2018, published 2025).
Where two headings read alike, the source gives them in different places.

How the values were obtained:
RPMI-8226 = assay: NCI 60 five dose screen
HCT-15 (Colon Cancer) = assay: NCI 60 one dose screen; assay type: cell-based, human
SR = assay: NCI 60 five dose screen; conditions: for CC50: read-out: LC50
[1] = system: 60 different human tumor cell lines; assay: NCI Development Therapeutics Program 60 cell line screen, one dose; assay type: cell-based
[2] = RPMI-8226 (Leukemia), five dose
[3] = read-out: LC50, RPMI-8226 (Leukemia), five dose
[4] = Non-small Cell Lung Cancer, A549/ATCC
[5] = Non-small Cell Lung Cancer, EKVX
[6] = Non-small Cell Lung Cancer, HOP-62
[7] = Non-small Cell Lung Cancer, HOP-92
[8] = Non-small Cell Lung Cancer, NCI-H23
[9] = Non-small Cell Lung Cancer, NCI-H226
[10] = Non-small Cell Lung Cancer, NCI-H322M
[11] = Non-small Cell Lung Cancer, NCI-H460

C[C@]12CCc3nc(N)sc3C1=CC[C@@H]1[C@@H]2CC[C@]2(C)C(=NNC(N)=O)CC[C@@H]12 [IVb.1]
GI50 (RPMI-8226; [2]): 0.3 µM
TGI (RPMI-8226; [2]): 1.37E−6
CC50 (RPMI-8226; [3]): > 100 µM
Growth Percent (HCT-15 (Colon Cancer)): −47.82%
GI50 (SR; SR (Leukemia), five dose): 1.29 µM
TGI (SR; SR (Leukemia), five dose): 4.33E−6
CC50 (SR; SR (Leukemia), five dose): > 100 µM
Growth Percent ([1]; Breast Cancer, BT-549): 107.48%
Growth Percent ([1]; Breast Cancer, HS 578T): 36.38%
Growth Percent ([1]; Breast Cancer, MCF7): −55.62%
Growth Percent ([1]; Breast Cancer, MDA-MB-231/ATCC): 35.18%
Growth Percent ([1]; Breast Cancer, MDA-MB-468): −46.23%
Growth Percent ([1]; Breast Cancer, T-47D): −21.02%
Growth Percent ([1]; CNS Cancer, SF-268): −6.41%
Growth Percent ([1]; CNS Cancer, SNB-19): −9.98%
Growth Percent ([1]; CNS Cancer, SNB-75): 99.02%
Growth Percent ([1]; CNS Cancer, U251): −69.94%
Growth Percent ([1]; Colon Cancer, COLO 205): 34.98%
Growth Percent ([1]; Colon Cancer, HCC-2998): 63.85%
Growth Percent ([1]; Colon Cancer, HCT-116): 6.35%
Growth Percent ([1]; Colon Cancer, HT29): 13.20%
Growth Percent ([1]; Colon Cancer, KM12): 20.47%
Growth Percent ([1]; Colon Cancer, SW-620): −59.20%
Growth Percent ([1]; Leukemia, CCRF-CEM): −5.86%
Growth Percent ([1]; Leukemia, HL-60(TB)): 42.82%
Growth Percent ([1]; Leukemia, K-562): −38.55%
Growth Percent ([1]; Leukemia, MOLT-4): 13.35%
Growth Percent ([1]; Leukemia, RPMI-8226): −6.28%
Growth Percent ([1]; Leukemia, SR): −21.79%
Growth Percent ([1]; Melanoma, LOX IMVI): −67.61%
Growth Percent ([1]; Melanoma, M14): −51.14%
Growth Percent ([1]; Melanoma, MALME-3M): 3.07%
Growth Percent ([1]; Melanoma, MDA-MB-435): −58.82%
Growth Percent ([1]; Melanoma, SK-MEL-5): 20.55%
Growth Percent ([1]; Melanoma, SK-MEL-28): 13.00%
Growth Percent ([1]; Melanoma, UACC-62): 38.92%
Growth Percent ([1]; Melanoma, UACC-257): 105.26%
Growth Percent [1, 4]: 0.92%
Growth Percent [1, 5]: −4.54%
Growth Percent [1, 6]: 75.49%
Growth Percent [1, 7]: 46.57%
Growth Percent [1, 8]: −44.30%
Growth Percent [1, 9]: 107.87%
Growth Percent [1, 10]: 52.42%
Growth Percent [1, 11]: −38.65%
Growth Percent ([1]; Ovarian Cancer, IGROV1): 2.90%
Growth Percent ([1]; Ovarian Cancer, NCI/ADR-RES): −5.32%
Growth Percent ([1]; Ovarian Cancer, OVCAR-3): −32.35%
Growth Percent ([1]; Ovarian Cancer, OVCAR-4): −19.07%
Growth Percent ([1]; Ovarian Cancer, OVCAR-5): 72.93%
Growth Percent ([1]; Ovarian Cancer, OVCAR-8): −2.26%
Growth Percent ([1]; Ovarian Cancer, SK-OV-3): 100.67%
Growth Percent ([1]; Prostate Cancer, PC-3): 57.29%
Growth Percent ([1]; Renal Cancer, 786-0): −9.65%
Growth Percent ([1]; Renal Cancer, A498): 91.62%
Growth Percent ([1]; Renal Cancer, ACHN): 32.38%
Growth Percent ([1]; Renal Cancer, CAKI-1): 62.97%
Growth Percent ([1]; Renal Cancer, RXF 393): 7.08%
Growth Percent ([1]; Renal Cancer, SN12C): 18.09%
Growth Percent ([1]; Renal Cancer, TK-10): 49.21%
Growth Percent ([1]; Renal Cancer, UO-31): 85.84%

C[C@]12CCc3nc(Nc4ccc(O)cc4)sc3C1=CC[C@@H]1[C@@H]2CC[C@]2(C)C(=O)CC[C@@H]12 [IIa.35]
GI50 (RPMI-8226; [2]): 2.35 µM
TGI (RPMI-8226; [2]): 7.07E−6
CC50 (RPMI-8226; [3]): > 100 µM
Growth Percent (HCT-15 (Colon Cancer)): −67.96%
GI50 (SR; SR (Leukemia), five dose): 2.72 µM
TGI (SR; SR (Leukemia), five dose): >1.00E−4
CC50 (SR; SR (Leukemia), five dose): > 100 µM
Growth Percent ([1]; Breast Cancer, BT-549): 45.59%
Growth Percent ([1]; Breast Cancer, HS 578T): 53.60%
Growth Percent ([1]; Breast Cancer, MCF7): 3.11%
Growth Percent ([1]; Breast Cancer, MDA-MB-231/ATCC): 35.27%
Growth Percent ([1]; Breast Cancer, MDA-MB-468): −36.91%
Growth Percent ([1]; Breast Cancer, T-47D): 10.57%
Growth Percent ([1]; CNS Cancer, SF-268): 58.35%
Growth Percent ([1]; CNS Cancer, SNB-19): 64.60%
Growth Percent ([1]; CNS Cancer, SNB-75): 41.74%
Growth Percent ([1]; CNS Cancer, U251): 19.48%
Growth Percent ([1]; Colon Cancer, COLO 205): 38.45%
Growth Percent ([1]; Colon Cancer, HCC-2998): 97.70%
Growth Percent ([1]; Colon Cancer, HCT-116): −72.37%
Growth Percent ([1]; Colon Cancer, HT29): 10.26%
Growth Percent ([1]; Colon Cancer, KM12): 46.68%
Growth Percent ([1]; Colon Cancer, SW-620): −32.15%
Growth Percent ([1]; Leukemia, CCRF-CEM): 8.33%
Growth Percent ([1]; Leukemia, HL-60(TB)): 8.98%
Growth Percent ([1]; Leukemia, K-562): 10.77%
Growth Percent ([1]; Leukemia, MOLT-4): 10.99%
Growth Percent ([1]; Leukemia, RPMI-8226): −24.54%
Growth Percent ([1]; Leukemia, SR): 9.60%
Growth Percent ([1]; Melanoma, LOX IMVI): −8.01%
Growth Percent ([1]; Melanoma, M14): 58.13%
Growth Percent ([1]; Melanoma, MALME-3M): 29.71%
Growth Percent ([1]; Melanoma, MDA-MB-435): 35.34%
Growth Percent ([1]; Melanoma, SK-MEL-2): 72.46%
Growth Percent ([1]; Melanoma, SK-MEL-5): 62.03%
Growth Percent ([1]; Melanoma, SK-MEL-28): 77.86%
Growth Percent ([1]; Melanoma, UACC-62): 55.82%
Growth Percent ([1]; Melanoma, UACC-257): 73.38%
Growth Percent [1, 4]: 79.28%
Growth Percent [1, 5]: 98.04%
Growth Percent [1, 6]: 92.69%
Growth Percent [1, 7]: 125.71%
Growth Percent [1, 8]: 70.16%
Growth Percent [1, 9]: 102.70%
Growth Percent [1, 10]: 93.36%
Growth Percent [1, 11]: 65.57%
Growth Percent ([1]; Ovarian Cancer, IGROV1): 13.07%
Growth Percent ([1]; Ovarian Cancer, NCI/ADR-RES): 68.59%
Growth Percent ([1]; Ovarian Cancer, OVCAR-3): −31.67%
Growth Percent ([1]; Ovarian Cancer, OVCAR-4): 57.12%
Growth Percent ([1]; Ovarian Cancer, OVCAR-5): 116.69%
Growth Percent ([1]; Ovarian Cancer, OVCAR-8): 35.92%
Growth Percent ([1]; Ovarian Cancer, SK-OV-3): 107.77%
Growth Percent ([1]; Prostate Cancer, DU-145): 10.45%
Growth Percent ([1]; Prostate Cancer, PC-3): 39.10%
Growth Percent ([1]; Renal Cancer, 786-0): −3.03%
Growth Percent ([1]; Renal Cancer, A498): 100.87%
Growth Percent ([1]; Renal Cancer, ACHN): −17.29%
Growth Percent ([1]; Renal Cancer, CAKI-1): 47.13%
Growth Percent ([1]; Renal Cancer, RXF 393): −16.18%
Growth Percent ([1]; Renal Cancer, SN12C): 30.38%
Growth Percent ([1]; Renal Cancer, TK-10): 22.82%
Growth Percent ([1]; Renal Cancer, UO-31): −48.83%

C[C@]12CC[C@H]3[C@@H](CC=C4c5sc(-c6ccc(O)cc6)nc5CC[C@@]43C)[C@@H]1CC[C@@H]2O [III.5, (1S,2R,13R,14S,17S,18S)-7-(4-hydroxyphenyl)-2,18-dimethyl-8-thia-6-azapentacyclo[11.7.0.02,10.05,9.014,18]icosa-5(9),6,10-trien-17-ol]
CC50 (RPMI-8226; Homo sapiens, RPMI-8226, read-out: LC50): > 100 µM
TGI (RPMI-8226; [2]): 2.50E−6
Growth Percent (HCT-15 (Colon Cancer)): 29.48%
GI50 (SR; Homo sapiens, SR): 1.37 µM
CC50 (SR; Homo sapiens, SR): > 100 µM
TGI (SR; SR (Leukemia), five dose): 3.38E−5
Growth Percent ([1]; Breast Cancer, BT-549): 59.26%
Growth Percent ([1]; Breast Cancer, HS 578T): 4.16%
Growth Percent ([1]; Breast Cancer, MCF7): 42.59%
Growth Percent ([1]; Breast Cancer, MDA-MB-231/ATCC): 56.24%
Growth Percent ([1]; Breast Cancer, MDA-MB-468): 81.03%
Growth Percent ([1]; Breast Cancer, T-47D): 67.74%
Growth Percent ([1]; CNS Cancer, SF-268): 48.55%
Growth Percent ([1]; CNS Cancer, SNB-19): 71.05%
Growth Percent ([1]; CNS Cancer, SNB-75): 26.42%
Growth Percent ([1]; CNS Cancer, U251): 20.08%
Growth Percent ([1]; Colon Cancer, COLO 205): 77.66%
Growth Percent ([1]; Colon Cancer, HCC-2998): 95.33%
Growth Percent ([1]; Colon Cancer, HCT-116): 43.80%
Growth Percent ([1]; Colon Cancer, HT29): 19.90%
Growth Percent ([1]; Colon Cancer, KM12): 60.79%
Growth Percent ([1]; Colon Cancer, SW-620): 71.71%
Growth Percent ([1]; Leukemia, CCRF-CEM): 13.10%
Growth Percent ([1]; Leukemia, HL-60(TB)): 22.65%
Growth Percent ([1]; Leukemia, K-562): 13.87%
Growth Percent ([1]; Leukemia, MOLT-4): −23.23%
Growth Percent ([1]; Leukemia, RPMI-8226): −36.92%
Growth Percent ([1]; Leukemia, SR): 5.95%
Growth Percent ([1]; Melanoma, LOX IMVI): 25.37%
Growth Percent ([1]; Melanoma, M14): 60.54%
Growth Percent ([1]; Melanoma, MALME-3M): 72.42%
Growth Percent ([1]; Melanoma, MDA-MB-435): 91.96%
Growth Percent ([1]; Melanoma, SK-MEL-2): 44.94%
Growth Percent ([1]; Melanoma, SK-MEL-5): 71.98%
Growth Percent ([1]; Melanoma, SK-MEL-28): 53.31%
Growth Percent ([1]; Melanoma, UACC-62): 28.69%
Growth Percent ([1]; Melanoma, UACC-257): 66.19%
Growth Percent [1, 4]: 52.15%
Growth Percent [1, 5]: 63.56%
Growth Percent [1, 6]: 46.75%
Growth Percent [1, 8]: 74.72%
Growth Percent [1, 9]: 109.87%
Growth Percent [1, 10]: 92.82%
Growth Percent [1, 11]: 41.91%
Growth Percent ([1]; Ovarian Cancer, IGROV1): 80.66%
Growth Percent ([1]; Ovarian Cancer, NCI/ADR-RES): 76.79%
Growth Percent ([1]; Ovarian Cancer, OVCAR-3): 38.63%
Growth Percent ([1]; Ovarian Cancer, OVCAR-4): 81.75%
Growth Percent ([1]; Ovarian Cancer, OVCAR-5): 106.38%
Growth Percent ([1]; Ovarian Cancer, OVCAR-8): 74.18%
Growth Percent ([1]; Ovarian Cancer, SK-OV-3): 38.63%
Growth Percent ([1]; Prostate Cancer, DU-145): 63.77%
Growth Percent ([1]; Prostate Cancer, PC-3): 49.49%
Growth Percent ([1]; Renal Cancer, 786-0): 8.35%
Growth Percent ([1]; Renal Cancer, A498): 49.45%
Growth Percent ([1]; Renal Cancer, ACHN): 46.04%
Growth Percent ([1]; Renal Cancer, CAKI-1): 61.32%
Growth Percent ([1]; Renal Cancer, RXF 393): −46.32%
Growth Percent ([1]; Renal Cancer, SN12C): 96.68%
Growth Percent ([1]; Renal Cancer, TK-10): 89.27%
Growth Percent ([1]; Renal Cancer, UO-31): 9.33%
